From US20110100079A1, “METHOD FOR IMPARTING STRESS TOLERANCE TO PLANT” (priority 2007, published 2011)

Experiments:
Type in all cases: in vivo
“Momotaro” tomato [1] = assay: Example 4 salt stress tolerance imparting test (tomato, tap water + NaCl); details: tap water + NaCl 3510 ppm, leaf, 100 ppm, 2 weeks
From the text: NaCl concentration 3510 ppm (water potential by NaCl: […]) (4) Cultivation period: two weeks (5) Plant preparation: A 50-cell tray was filled with Kureha gardening soil manufactured by Kureha Corporation (fertilizer components: N:P:K=0.4:1.9:0.6 g/kg soil), and seeds of a “Momotaro” tomato were sowed, thinly covered with Kureha gardening soil, and sufficiently irrigated to allow the seeds to sprout. When the leaves in the 2-leaf stage fully unfolded, the soil on the tomato roots was carefully washed away with running water, and a test was performed. (6) The chemicals used and the concentration of a treatment solution were as in Example 1 (7) Amount of application: 10 ml/specimen for leaf spraying, 50 ml/specimen for fertigation Method of Salt Stress Tolerance Imparting Test […]

“Momotaro” tomato [2] = assay: Example 2 temperature stress tolerance imparting test (tomato); details: 32° C., leaf, 100 ppm, 2 weeks
Procedure: Other cultivation conditions were the same as the conditions of the temperature stress test. […] (2) Solution culture medium: […] Method of Temperature Stress Tolerance Imparting Test The temperature in a climatic chamber was controlled so as to be 10, 15, or 32° C. The environmental conditions were controlled so as to have an illuminance by a fluorescent light of 5000 Lux and a daily light-dark cycle of a 16-hour light period and a 8-hour dark period. In this test, a temperature of 23° C. at which the optimum growth was observed was regarded as a reference temperature (temperature stress-free test condition), and a stress was imposed by applying a temperature higher or lower than the reference temperature. A tomato as prepared above was planted in a 250 ml polyethylene bottle filled with the solution culture medium (½ Otsuka A formulation). A treatment solution as presented in Table 1 was sprayed onto the leaves or applied to the underground portion. […] Ten specimens were prepared for each of the test plot and the control plots, and a plant stress level and an extent of imparting plant stress tolerance were calculated according to Formula (ii) and (iii) above using as a fresh plant body weight the average of the fresh plant body weights of each specimen 2 weeks after the beginning of the test.

“Momotaro” tomato [3] = assay: Standard test: standard extent of imparting plant salt stress tolerance; details: 100 ppm sprayed onto leaves 10 ml/specimen, NaCl 3510 ppm in tap water, fresh weight after 2 weeks vs salt-stressed untreated control plot 1
Procedure: Standard Test (I) Plant Preparation A 50-cell tray is filled with potting soil (fertilizer components: N:P:K=0.4:1.9:0.6 (g)/kg potting soil); and seeds of a “Momotaro” tomato (Takii Co., Ltd.) are sowed, thinly covered with potting soil, and sufficiently irrigated to allow the seeds to sprout. When the leaves in the 2-leaf stage are fully unfolded, the soil on the tomato roots is washed away with running water, and a test is performed. For the potting soil, Kureha gardening soil manufactured by Kureha Corporation may be used. (II) Test Condition Setting The environmental conditions are controlled such that the temperature is 23° C., the relative humidity is 50%, the illuminance is 5000 Lux, and the daily light-dark cycle includes a 16-hour light period and an 8-hour dark period. Such environmental conditions can be obtained by, for example, controlling the temperature in a room or a climate chamber where the temperature and the relative humidity can be controlled, and controlling illuminance by a fluorescent light or the like. […] (III) Treatment with Plant Stress Tolerance Imparting Composition […] A known surfactant or a like material that barely affects the plant may be used in the preparation of an aqueous dispersion. Test plot: An aqueous solution or an aqueous dispersion of a test compound (sugar derivative-type surfactant) (concentration: 100 ppm) is sprayed onto the leaves in an amount of 10 ml per tomato specimen. […] NaCl is added to a solution culture medium (creating a salt stress), but no test compound (plant stress tolerance imparting composition) is given to the tomato. Control plot 2: No NaCl is added to a solution culture medium (creating no salt stress), and no test compound (plant stress tolerance imparting composition) is given to the tomato. (IV) Calculation of Standard Extent of Imparting Plant Salt Stress Tolerance (%) […] The plant stress level (standard plant salt stress level) attained in the above-described standard test is about 130%. In this regard, the standard plant salt stress level can be calculated according to Formula (ii)′ below.

[4] = system: Potato Variety: Toyoshiro; assay: Example 5 drying stress tolerance imparting test (potato variety Toyoshiro); details: pF 2.3, leaf, 100 ppm once a week, 3 weeks
Procedure: Other cultivation conditions were the same as the conditions of the drying stress test. Drying stress conditions: soil pF value: 2.3, 2.5, or 2.9, cultivation temperature: 23° C., relative humidity: 50%, illuminance: 5000 Lux (fluorescent light), light/dark cycle: 16 hours/8 hours (2) Cultivation Period: 3 weeks (3) Soil: Kureha gardening soil manufactured by Kureha Corporation (fertilizer components: N:P:K=0.4:1.9:0.6 g/kg soil) (4) The chemicals used and the amount of a treatment solution applied were the same as in Example 3. Method of Drying Stress Tolerance Imparting Test A planter (60 cm) was filled with Kureha gardening soil manufactured by Kureha Corporation (fertilizer components: N:P:K=0.4:1.9:0.6 g/kg soil) in a glass greenhouse, tubers of a “Thyoshiro” potato were cut in half: and 5 pieces thereof were planted in the planter, thinly covered with Kureha gardening soil, and sufficiently watered to allow the tubers to sprout. When the leaves in the 3-leaf stage fully unfolded, the Solarium tuberosu was relocated on a plant culture rack in an air-conditioned room, and a test was initiated. […] From immediately after the beginning of the test, a treatment solution of Table 1 was sprayed onto the leaves or applied to the underground portions once a week. […] Five specimens (per planter) were prepared for each of the test plot and the control plots, plant bodies were collected 3 weeks after the beginning of the test such that the roots were not cut, the soil was washed away with running water, the fresh plant body weights were measured, and a plant stress level and an extent of imparting plant stress tolerance were calculated according to Formula (ii) and (iii) above using the average of the weights.

“Momotaro” tomato [5] = assay: Example 3 drying stress tolerance imparting test (tomato); details: pF 2.3, leaf, 100 ppm once a week, 3 weeks
Procedure: Other cultivation conditions were as with the conditions of the drying stress test. Drying stress conditions: soil pF value: 2.3, 2.5, or 2.9, cultivation temperature: 23° C., relative humidity: 50%, illuminance: 5000 Lux (fluorescent light), light/dark cycle: 16 hours/8 hours (2) Cultivation period: 3 weeks (3) Soil: Kureha gardening soil manufactured by Kureha Corporation (fertilizer components: N:P:K=0.4:1.9:0.6 g/kg soil) (4) Plant preparation: A 50-cell tray was filled with Kureha gardening soil manufactured by Kureha Corporation (fertilizer components: N:P:K=0.4:1.9:0.6 g/kg soil), and seeds of a “Momotaro” tomato were sowed, thinly covered with Kureha gardening soil, and sufficiently watered to allow the seeds to sprout. When the leaves in the 2-leaf stage fully unfolded, the soil on the tomato roots was carefully washed away with running water, and a test was performed. (5) The chemicals used and the amount of a treatment solution applied were as in Example 1. (6) Amount of treatment solution applied: 10 ml/specimen for leaf spraying, 50 ml/specimen for fertigation Method of Drying Stress Tolerance Imparting Test Five tomato specimens as prepared above were planted in a 60-cm planter placed on a plant culture rack in an air-conditioned room. […] From immediately after planting the tomatoes, a treatment solution of Table 1 was sprayed onto the leaves or applied to the underground portions once a week. […] Five specimens (per planter) were prepared for each of the test plot and the control plots, plant bodies were collected 3 weeks after the beginning of the test such that the roots were not cut, the soil was washed away with running water, the fresh plant body-weights were measured, and a plant stress level and an extent of imparting plant stress tolerance were calculated according to Formula (ii) and (iii) above using the average of the weights.

## Sucrose fatty acid ester (C18, HLB = 5) [Product of present invention 17]
“Momotaro” tomato [1]
  Extent of imparting plant stress tolerance: 113%
“Momotaro” tomato [2]
  Extent of imparting plant stress tolerance: 111%
“Momotaro” tomato [3]
  Standard extent of imparting plant salt stress tolerance: 113%
[4]
  Extent of imparting plant stress tolerance: 114%
“Momotaro” tomato [5]
  Extent of imparting plant stress tolerance: 112%
